These results are taken from patent US8796256B2 (Janssen Pharmaceutica NV, priority 2010, dated 2014).

A value given as a limit tells only on which side of the number the result lay.

The test has as its target T1, ERR1 (also known as ERR-α or ERR-1) (Homo sapiens, UniProt P11474).
T1 sequence (P11474 193-421 limits assumed): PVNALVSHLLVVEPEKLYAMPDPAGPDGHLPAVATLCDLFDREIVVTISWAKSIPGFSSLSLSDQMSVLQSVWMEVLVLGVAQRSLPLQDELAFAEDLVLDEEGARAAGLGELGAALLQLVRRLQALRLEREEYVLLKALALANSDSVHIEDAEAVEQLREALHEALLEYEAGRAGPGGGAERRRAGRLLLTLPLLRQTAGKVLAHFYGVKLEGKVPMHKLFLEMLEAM
Put plainly: TR-FRET assay (disruption of co-activator peptide binding to ERR1 LBD). It is filed as biochemical. Conditions: 6 nM 6His-ERR1LBD, 6 nM GST-SRC-2 peptide; average of 3 independent experiments. Summed up: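 Homogeneous TR-FRET measuring displacement of GST-hSRC2 co-activator peptide (6 nM) from His-tagged ERR1 LBD (6 nM), detected with α-GST Eu cryptate (30 nM) and α-His-XL665 (7.5 nM). Buffer 25 mM Tris pH 8, 2.5 mM Hepes, 20 mM KCl, 1 mM DTT, 0.05 mg/mL delipidated BSA; equilibration 4-18 h at 25° C. Hyperbolic dose-response fit, mean of 3 experiments.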
In general terms: Time-resolved FRET reads energy transfer from a long-lived donor to a nearby acceptor.
As a reminder, the EC50 is the concentration at which the effect is half-maximal. Higher therefore signals weaker potency. Regarding `O=C1S/C(=C\c2ccc3c(ccn3Cc3ccc(Cl)cc3C(F)(F)F)c2)C(=O)N1C[C@H]1COCCN1` [Compound 256, (5Z)-5-({1-[4-Chloro-2-(trifluoromethyl)benzyl]-1H-indol-5-yl}methylidene)-3-[(3S)-morpholin-3-ylmethyl]-1,3-thiazolidine-2,4-dione], the response was half-maximal at 0.11 µM (EC50).

The molecule `CN1CCCC1CCN1C(=O)S/C(=C\c2ccc3c(cnn3Cc3ccc(Cl)cc3C(F)(F)F)c2)C1=O` (stereo not drawn) [Compound 140, (5Z)-5-({1-[4-Chloro-2-(trifluoromethyl)benzyl]-1H-indazol-5-yl}methylidene)-3-[2-(1-methylpyrrolidin-2-yl)ethyl]-1,3-thiazolidine-2,4-dione] yielded an EC50 of 0.032 µM. For `O=C1S/C(=C\c2ccc3c(cnn3Cc3ccc(Cl)cc3C(F)(F)F)c2)C(=O)N1Cc1cncs1` [Compound 94, (5Z)-5-({1-[4-Chloro-2-(trifluoromethyl)benzyl]-1H-indazol-5-yl}methylidene)-3-(1,3-thiazol-5-ylmethyl)-1,3-thiazolidine-2,4-dione] the value was at least 10 µM; for `O=C1S/C(=C\c2ccc3c(cnn3Cc3ccc(Cl)cc3C(F)(F)F)c2)C(=O)N1OCCN1CCCC1` [Compound 289, (5Z)-5-({1-[4-Chloro-2-(trifluoromethyl)benzyl]-1H-indazol-5-yl}methylidene)-3-(2-pyrrolidin-1-ylethoxy)-1,3-thiazolidine-2,4-dione], 0.017 µM. Molecule `CC[C@H](N)CN1C(=O)S/C(=C\c2ccc3c(cnn3Cc3ccc(Cl)cc3C(F)(F)F)c2)C1=O` [Compound 154, 3-[(2S)-2-Aminobutyl]-(5Z)-5-({1-[4-chloro-2-(trifluoromethyl)benzyl]-1H-indazol-5-yl}methylidene)-1,3-thiazolidine-2,4-dione] yielded an EC50 of 0.017 µM. In other words, the double-digit nanomolar range.

The molecule `O=C1S/C(=C\c2ccc3c(cnn3Cc3ccc(Cl)cc3C(F)(F)F)c2)C(=O)N1[C@@H]1CNC[C@H]1F` (relative stereo) [Compound 317, (5Z)-5-({1-[4-Chloro-2-(trifluoromethyl)benzyl]-1H-indazol-5-yl}methylidene)-3-[trans-4-fluoropyrrolidin-3-yl]-1,3-thiazolidine-2,4-dione] had a half-maximal effective concentration (EC50) of 0.012 µM.

In turn, `O=C1S/C(=C\c2ccc3c(cnn3Cc3ccc(Cl)cc3C(F)(F)F)c2)C(=O)N1Cc1csc(NS(=O)(=O)C(F)(F)F)n1` [Compound 414, N-(4-{[(5Z)-5-({1-[4-Chloro-2-(trifluoromethyl)benzyl]-1H-indazol-5-yl}methylidene)-2,4-dioxo-1,3-thiazolidin-3-yl]methyl}-1,3-thiazol-2-yl)-1,1,1-trifluoromethanesulfonamide] came in with an EC50 of 0.109 µM. Then `CCN1C[C@@H](F)[C@H](N2C(=O)S/C(=C\c3ccc4c(cnn4Cc4ccc(Cl)cc4C(F)(F)F)c3)C2=O)C1` (relative stereo) [Compound 320, (5Z)-5-({1-[4-Chloro-2-(trifluoromethyl)benzyl]-1H-indazol-5-yl}methylidene)-3-[trans-1-ethyl-4-fluoropyrrolidin-3-yl]-1,3-thiazolidine-2,4-dione], with 0.031 µM; and `CC(C)(C)NCCN1C(=O)S/C(=C\c2ccc3c(cnn3Cc3ccc(Cl)cc3C(F)(F)F)c2)C1=O` [Compound 46, (5Z)-3-[2-(tert-Butylamino)ethyl]-5-({1-[4-chloro-2-(trifluoromethyl)benzyl]-1H-indazol-5-yl}methylidene)-1,3-thiazolidine-2,4-dione], with 0.019 µM; and `O=C1S/C(=C\c2ccc3c(cnn3Cc3ccc(C(F)(F)F)cc3C(F)(F)F)c2)C(=O)N1CCn1cncn1` [Compound 66, (5Z)-5-({1-[2,4-Bis(trifluoromethyl)benzyl]-1H-indazol-5-yl}methylidene)-3-[2-(1H-1,2,4-triazol-1-yl)ethyl]-1,3-thiazolidine-2,4-dione], with 0.016 µM. In turn, `CCN1CCC(N2C(=O)S/C(=C\c3ccc4c(cnn4Cc4ccc(Cl)cc4C(F)(F)F)c3)C2=O)CC1` [Compound 118, (5Z)-5-({1-[4-Chloro-2-(trifluoromethyl)benzyl]-1H-indazol-5-yl}methylidene)-3-(1-ethylpiperidin-4-yl)-1,3-thiazolidine-2,4-dione] registered an EC50 of 0.025 µM. This EC50 lies about 1.6-fold higher than the previous one.

Turning to `O=C1S/C(=C\c2ccc3c(cnn3Cc3ccc(Cl)cc3C(F)(F)F)c2)C(=O)N1Cc1ncon1` [Compound 401, (5Z)-5-({1-[4-Chloro-2-(trifluoromethyl)benzyl]-1H-indazol-5-yl}methylidene)-3-(1,2,4-oxadiazol-3-ylmethyl)-1,3-thiazolidine-2,4-dione], the EC50 is 0.036 µM. Then `CN1CCC[C@H]1CN1C(=O)S/C(=C\c2ccc3c(c2)c(Cl)nn3Cc2ccc(Cl)cc2C(F)(F)F)C1=O` [Compound 301, (5Z)-5-({3-Chloro-1-[4-chloro-2-(trifluoromethyl)benzyl]-1H-indazol-5-yl}methylidene)-3-{[(2S)-1-methylpyrrolidin-2-yl]methyl}-1,3-thiazolidine-2,4-dione], with 0.015 µM; and `CC(C)C[C@H](N)CN1C(=O)S/C(=C\c2ccc3c(cnn3Cc3ccc(Cl)cc3C(F)(F)F)c2)C1=O` [Compound 53, (5Z)-3-[(2S)-2-Amino-4-methylpentyl]-5-({1-[4-chloro-2-(trifluoromethyl)benzyl]-1H-indazol-5-yl}methylidene)-1,3-thiazolidine-2,4-dione], with 0.039 µM; and `CS(=O)(=O)CCN1CCC[C@H]1CN1C(=O)S/C(=C\c2ccc3c(cnn3Cc3ccc(Cl)cc3C(F)(F)F)c2)C1=O` [Compound 159, (5Z)-5-({1-[4-Chloro-2-(trifluoromethyl)benzyl]-1H-indazol-5-yl}methylidene)-3-({(2S)-1-[2-(methylsulfonyl)ethyl]pyrrolidin-2-yl}methyl)-1,3-thiazolidine-2,4-dione], with 0.087 µM.

`NC1(CN2C(=O)S/C(=C\c3ccc4c(cnn4Cc4ccc(Cl)cc4C(F)(F)F)c3)C2=O)CC1` [Compound 194, (5Z)-3-[(1-Aminocyclopropyl)methyl]-5-({1-[4-chloro-2-(trifluoromethyl)benzyl]-1H-indazol-5-yl}methylidene)-1,3-thiazolidine-2,4-dione]: the EC50 came to 0.034 µM. Then `CN1CCCC(N2C(=O)S/C(=C\c3ccc4c(cnn4Cc4ccc(Cl)cc4C(F)(F)F)c3)C2=O)C1` (stereo not drawn) [Compound 136, (5Z)-5-({1-[4-Chloro-2-(trifluoromethyl)benzyl]-1H-indazol-5-yl}methylidene)-3-(1-methylpiperidin-3-yl)-1,3-thiazolidine-2,4-dione], with 0.035 µM; and `O=C1S/C(=C\c2ccc3c(cnn3Cc3ccc(Cl)cc3C(F)(F)F)c2)C(=O)N1CC(O)C1CCNCC1` (stereo not drawn) [Compound 285, (5Z)-5-({1-[4-Chloro-2-(trifluoromethyl)benzyl]-1H-indazol-5-yl}methylidene)-3-(2-hydroxy-2-piperidin-4-ylethyl)-1,3-thiazolidine-2,4-dione], with 0.038 µM; and `N[C@H](CN1C(=O)S/C(=C\c2ccc3c(cnn3Cc3ccc(Cl)cc3C(F)(F)F)c2)C1=O)c1ccccc1` [Compound 161, (5Z)-3-[(2S)-2-Amino-2-phenylethyl]-5-({1-[4-chloro-2-(trifluoromethyl)benzyl]-1H-indazol-5-yl}methylidene)-1,3-thiazolidine-2,4-dione], with 0.073 µM. Then `CC(C)N1C[C@@H](N2C(=O)S/C(=C\c3ccc4c(cnn4Cc4ccc(Cl)cc4C(F)(F)F)c3)C2=O)[C@@H](F)C1` (relative stereo) [Compound 325, (5Z)-5-({1-[4-Chloro-2-(trifluoromethyl)benzyl]-1H-indazol-5-yl}methylidene)-3-[cis-4-fluoro-1-(1-methylethyl)pyrrolidin-3-yl]-1,3-thiazolidine-2,4-dione], with 0.087 µM; and `CCN1CC[C@@H](N2C(=O)S/C(=C\c3ccc4c(cnn4Cc4ccc(Cl)cc4C(F)(F)F)c3)C2=O)[C@@H](F)C1` (relative stereo) [Compound 332, (5Z)-5-({1-[4-Chloro-2-(trifluoromethyl)benzyl]-1H-indazol-5-yl}methylidene)-3-[cis-1-ethyl-3-fluoropiperidin-4-yl]-1,3-thiazolidine-2,4-dione], with 0.11 µM; and `O=C1S/C(=C\c2ccc3c(cnn3Cc3ccc(C(F)(F)F)cc3C(F)(F)F)c2)C(=O)N1[C@@H]1CNCC[C@H]1O` (relative stereo) [Compound 280, (5Z)-5-({1-[2,4-Bis(trifluoromethyl)benzyl]-1H-indazol-5-yl}methylidene)-3-[trans-4-hydroxypiperidin-3-yl]-1,3-thiazolidine-2,4-dione], with 0.034 µM. The molecule `O=C1S/C(=C\c2ccc3c(cnn3[C@H]3CCc4cc(Cl)ccc43)c2)C(=O)N1CCN1CCCC1` [Compound 172, (5Z)-5-({1-[(1S)-5-Chloro-2,3-dihydro-1H-inden-1-yl]-1H-indazol-5-yl}methylidene)-3-(2-pyrrolidin-1-ylethyl)-1,3-thiazolidine-2,4-dione] came in with an EC50 of 0.3 µM. This EC50 is about 8.8-fold higher than that of the molecule before.

For the molecule `CN1CC[C@@H](N2C(=O)S/C(=C\c3ccc4c(cnn4Cc4ccc(Cl)cc4C(F)(F)F)c3)C2=O)C1` [Compound 144, (5Z)-5-({1-[4-Chloro-2-(trifluoromethyl)benzyl]-1H-indazol-5-yl}methylidene)-3-[(3R)-1-methylpyrrolidin-3-yl]-1,3-thiazolidine-2,4-dione], the EC50 came out at 0.031 µM.
